The results in this text go back to ChEMBL document CHEMBL1147336, “A new antibacterial sesquiterpene from Premna oligotricha” (1993).

Values after ≈ are worked out from the molar mass of the structure shown. Active and inactive are the calls of the source. No cut-off for these calls is given here.

One test deals with Staphylococcus aureus. As to the kind of experiment: Antibacterial activity against Staphylococcus aureus NCTC 6571. It counts as functional.
The test system of a further test is Pseudomonas aeruginosa. The experiment in a line: Antibacterial activity against Pseudomonas aeruginosa NCTC 6750 at 200 ug/ml. It counts as functional, organism-based.
A further test has as its system Bacillus pumilus. The experiment in a line: Antibacterial activity against Bacillus pumilus NCTC 10327. It counts as functional.
The next test relates to Enterococcus faecalis. As to the kind of experiment: Antibacterial activity against Streptococcus faecalis NCTC 775. It counts as functional.
In another test the test system is Escherichia coli. The experiment in a line: Antibacterial activity against Escherichia coli NCTC 9001 at 200 ug/ml. It counts as functional, organism-based.
A further test relates to Bacillus subtilis. The experiment in a line: Antibacterial activity against Bacillus subtilis NCTC 10452. It counts as functional.

The term MIC denotes the least concentration at which growth counts as inhibited. Higher therefore signals weaker potency.

With `C=C(CC[C@@H]1C(C)(C)CCC[C@]1(C)O)C(C)=O`, the minimum inhibitory concentration (MIC) was determined as 50 µg/mL (≈ 210 µM) against Staphylococcus aureus, 50 µg/mL (≈ 210 µM) in the test with Bacillus pumilus, 150 µg/mL (≈ 629 µM) in the test with Enterococcus faecalis and 100 µg/mL (≈ 420 µM) in the test with Bacillus subtilis. Moreover, the outcome in the test on Pseudomonas aeruginosa and in the test on Escherichia coli was inactive.

As for `CN[C@@H]1[C@H](O[C@H]2[C@H](O[C@H]3[C@H](O)[C@@H](O)[C@H](N=C(N)N)[C@@H](O)[C@@H]3N=C(N)N)O[C@@H](C)[C@]2(O)C=O)O[C@@H](CO)[C@H](O)[C@H]1O.CN[C@@H]1[C@H](O[C@H]2[C@H](O[C@H]3[C@H](O)[C@@H](O)[C@H](N=C(N)N)[C@@H](O)[C@@H]3N=C(N)N)O[C@@H](C)[C@]2(O)C=O)O[C@@H](CO)[C@H](O)[C@H]1O.O=S(=O)(O)O.O=S(=O)(O)O.O=S(=O)(O)O` [STREPTOMYCIN SULFATE], the minimum inhibitory concentration (MIC) in the test on Staphylococcus aureus was 3.75 µg/mL; against Bacillus pumilus, 0.94 µg/mL; against Enterococcus faecalis it was 15 µg/mL; in the test on Bacillus subtilis, 3.75 µg/mL.
